Laboratory results reported in article PMC3781056, “New Pyrazolopyrimidine Inhibitors of Protein Kinase D as Potent Anticancer Agents for Prostate Cancer Cells” (PLoS ONE, 2013).
Entries after “also recorded” stand apart in the source; their conditions may differ. Like-named read-outs stand apart in the source and are kept apart here.

Columns and labels:
Format in all cases: biochemical
Recombinant human PKD3 = target: T1, Recombinant human PKD3 (Homo sapiens, UniProt O94806); test: Radiometric PKD kinase assay, 10-point IC50
T1 sequence (O94806 1-890): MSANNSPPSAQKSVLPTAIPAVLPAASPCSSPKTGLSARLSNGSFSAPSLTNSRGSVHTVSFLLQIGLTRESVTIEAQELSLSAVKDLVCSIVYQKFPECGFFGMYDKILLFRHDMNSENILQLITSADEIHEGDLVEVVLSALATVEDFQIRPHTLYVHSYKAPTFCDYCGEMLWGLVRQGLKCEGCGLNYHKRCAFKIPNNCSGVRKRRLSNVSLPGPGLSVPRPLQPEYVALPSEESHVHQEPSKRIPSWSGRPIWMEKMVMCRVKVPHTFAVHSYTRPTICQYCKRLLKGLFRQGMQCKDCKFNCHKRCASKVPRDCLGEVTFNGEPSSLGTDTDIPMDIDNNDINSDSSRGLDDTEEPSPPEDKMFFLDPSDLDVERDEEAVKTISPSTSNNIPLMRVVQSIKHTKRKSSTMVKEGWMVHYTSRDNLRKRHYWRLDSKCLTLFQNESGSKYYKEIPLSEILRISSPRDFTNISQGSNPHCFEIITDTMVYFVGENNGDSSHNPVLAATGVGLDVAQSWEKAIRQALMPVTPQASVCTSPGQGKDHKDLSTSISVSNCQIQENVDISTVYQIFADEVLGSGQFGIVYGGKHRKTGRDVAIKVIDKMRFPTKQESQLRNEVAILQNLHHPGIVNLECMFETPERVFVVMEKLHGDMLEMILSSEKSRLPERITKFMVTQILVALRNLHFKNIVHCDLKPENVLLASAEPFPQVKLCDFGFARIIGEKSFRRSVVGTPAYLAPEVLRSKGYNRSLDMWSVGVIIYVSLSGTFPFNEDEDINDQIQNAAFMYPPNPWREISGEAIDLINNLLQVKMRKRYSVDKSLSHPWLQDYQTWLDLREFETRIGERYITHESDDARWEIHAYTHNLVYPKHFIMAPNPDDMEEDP
Description: (§1) Recombinant human PKD1, 2, or 3 proteins were incubated in a mixture containing a peptide substrate derived from a PKD substrate, HDAC-5, and 10 different concentrations of the two compounds.
(§2) The IC50 values were calculated as the mean ±SEM of at least three independent experiments with triplicate determinations at each concentration of drug in each experiment. The data were plotted as a function of drug concentration and a representative graph is shown.

CAMKIIα = target: T2, CAMKIIα (Homo sapiens, UniProt Q9UQM7); test: In vitro radiometric CAMK kinase assay; details: up to 10 µM
T2 construct: purchased SignalChem (Richmond, BC, Canada)
Description: The PKC kinase assay was carried out by co-incubating 1 µCi [γ-^32P]ATP, 20 µM ATP, 50 ng of purified PKCα or PKCδ and 5 µg of myelin basic protein 4–14, 0.25 mg/mL bovine serum albumin, 0.1 mg/mL phosphatidylcholine/phosphatidylserine (80/20%) (1 µM), 1 µM phorbol dibutyrate in 50 µL of kinase buffer containing 50 mM Tris-HCl, pH 7.5, 4 mM MgCl2 and 10 mM β-mercaptoethanol. For the CAMK assay, 50 ng of CAMKIIα and 2 µg syntide-2 substrate in 50 µL kinase buffer were incubated with 0.1 mM MgCl2, 1 µCi of [γ-^32P] ATP, 70 µM ATP. 0.5 mM CaCl2 and 30 ng/µL calmodulin were preincubated for 15 min on ice and then added in the kinase reaction. The reactions were incubated at 30°C for 10 min and 25 µL of the reaction was spotted on Whatman P81 filter paper. The filter paper was washed 3 times in 0.5% phosphoric acid, air dried and counted using Beckman LS6500 multipurpose scintillation counter.

Recombinant human PKD2 = target: T3, Recombinant human PKD2 (Homo sapiens, UniProt Q9BZL6); test: Radiometric PKD kinase assay, 10-point IC50
T3 sequence (Q9BZL6 1-878): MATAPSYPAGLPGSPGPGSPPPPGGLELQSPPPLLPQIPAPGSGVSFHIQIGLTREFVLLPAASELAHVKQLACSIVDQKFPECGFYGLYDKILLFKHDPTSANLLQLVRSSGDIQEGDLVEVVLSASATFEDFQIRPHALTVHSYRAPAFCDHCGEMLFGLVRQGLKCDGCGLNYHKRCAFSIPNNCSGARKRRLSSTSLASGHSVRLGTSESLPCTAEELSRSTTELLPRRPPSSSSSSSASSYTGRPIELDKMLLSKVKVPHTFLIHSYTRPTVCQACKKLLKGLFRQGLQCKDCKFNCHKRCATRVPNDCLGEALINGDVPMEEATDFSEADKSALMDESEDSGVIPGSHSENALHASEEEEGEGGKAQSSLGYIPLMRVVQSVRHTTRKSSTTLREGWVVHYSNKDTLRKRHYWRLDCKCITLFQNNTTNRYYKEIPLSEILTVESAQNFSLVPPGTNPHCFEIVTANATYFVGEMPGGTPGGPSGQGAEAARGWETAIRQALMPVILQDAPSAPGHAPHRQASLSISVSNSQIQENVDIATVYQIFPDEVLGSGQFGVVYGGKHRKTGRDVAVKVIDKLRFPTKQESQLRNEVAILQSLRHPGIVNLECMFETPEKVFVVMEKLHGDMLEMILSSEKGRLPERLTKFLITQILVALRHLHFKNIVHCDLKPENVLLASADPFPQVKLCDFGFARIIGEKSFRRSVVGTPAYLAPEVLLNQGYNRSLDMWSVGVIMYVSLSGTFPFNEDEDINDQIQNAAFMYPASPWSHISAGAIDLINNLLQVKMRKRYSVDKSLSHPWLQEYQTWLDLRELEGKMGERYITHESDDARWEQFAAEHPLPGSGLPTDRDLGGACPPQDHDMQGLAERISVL
Description: as §1, §2

IC50 (Recombinant human PKD3; mean ± SEM, read-out: IC50 PKD3) [nM] | IC50 (Recombinant human PKD3; value in the figure, representative graph, read-out: PKD3 IC50) [nM] | IC50 (Recombinant human PKD2; mean ± SEM, read-out: IC50 PKD2) [nM] | IC50 (Recombinant human PKD2; value in the figure, representative graph, read-out: PKD2 IC50) [nM] | Structure (SMILES) | IC50 (Recombinant human PKD3) [nM] | IC50 (Recombinant human PKD3; PKD3 IC50, value printed in the figure, representative graph) [nM] | inhibition of CAMKIIα, in words (CAMKIIα) | IC50 (Recombinant human PKD2; IC50 PKD2, mean ± SEM) [nM] | IC50 (Recombinant human PKD2; PKD2 IC50, value printed in the figure, representative graph) [nM]
– | – | – | – | CC(C)(C)n1nc(-c2cccc3ccccc23)c2c(N)ncnc21 [Compound 1-NA-PP1, 1-(t-Butyl)-3-(naphthalen-1-yl)-1H-pyrazolo[3,4-d]pyrimidin-4-amine] | 109 | 104 | little activity; also recorded: did not significantly inhibit | 133 | 133
99.7 | 97 | 115 | 108 | O=C(c1ccc(Nc2nccc(-c3cc4ccccc4s3)n2)cc1)N1CCC(N2CCCC2)CC1 [IKK-16, reference compound] | – | – | almost completely abrogated its activity | – | –
